Measurements taken from patent publication US20250346597A1, “CONDENSED HETEROCYCLIC COMPOUNDS AS INHIBITOR OF DIACYLGLYCEROL KINASES” (BEONE MEDICINES I GMBH, priority 2023, published 2025).

Experiments:
DGKζ = DGKζ (Homo sapiens (Human), UniProt Q13574); test: Biochemical DGK IC50 assay (ADP-Glo, lipid micelle substrate), DGKζ; settings: full length DGKζ 0.5 nM, ATP 140 μM, DAG 80 μM
How it was run: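 Full-length human His-TEV-tagged DGKζ, expressed in Sf9 cells and purified, was run at room temperature on DAG/PS lipid micelles in 50 mM HEPES, 10 mM MgCl2, 0.01 mM CaCl2 buffer. After 1 h reaction, ADP formed was detected by ADP-Glo luminescence. IC50s came from inhibition across increasing compound concentrations.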

DGKα = DGKα (Homo sapiens (Human), UniProt P23743); test: Biochemical DGK IC50 assay (ADP-Glo, lipid micelle substrate), DGKα; settings: full length DGKα […], ATP 140 μM, DAG 80 μM; further: full length DGKα 7.5 nM
DGKα, sequence (P23743 whole entry): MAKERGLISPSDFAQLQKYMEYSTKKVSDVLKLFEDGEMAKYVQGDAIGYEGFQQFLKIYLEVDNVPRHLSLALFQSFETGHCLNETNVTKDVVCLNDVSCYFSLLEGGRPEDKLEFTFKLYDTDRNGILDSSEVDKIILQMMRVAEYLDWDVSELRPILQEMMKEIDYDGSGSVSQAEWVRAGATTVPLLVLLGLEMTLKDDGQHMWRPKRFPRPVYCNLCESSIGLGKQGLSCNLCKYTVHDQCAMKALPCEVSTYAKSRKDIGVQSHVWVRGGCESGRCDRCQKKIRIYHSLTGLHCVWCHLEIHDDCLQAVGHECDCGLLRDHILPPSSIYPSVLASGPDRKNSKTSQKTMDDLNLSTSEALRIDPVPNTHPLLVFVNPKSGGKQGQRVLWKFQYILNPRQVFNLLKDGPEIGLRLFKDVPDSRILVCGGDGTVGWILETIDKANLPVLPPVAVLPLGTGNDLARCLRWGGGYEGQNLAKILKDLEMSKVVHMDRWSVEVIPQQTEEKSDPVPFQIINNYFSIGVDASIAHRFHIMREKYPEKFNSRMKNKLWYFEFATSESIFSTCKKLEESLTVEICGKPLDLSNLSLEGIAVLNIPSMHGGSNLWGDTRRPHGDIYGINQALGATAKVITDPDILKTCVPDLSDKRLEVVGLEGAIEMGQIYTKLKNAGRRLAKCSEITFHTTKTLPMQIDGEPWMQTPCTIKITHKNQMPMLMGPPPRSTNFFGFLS
How it was run: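 Full-length human DGKα assayed by ADP-Glo with DAG/PS lipid micelle substrate at room temperature in 50 mM HEPES, 10 mM MgCl2, 0.01% BSA, 0.1 mM Na3VO4, 0.005% Tween-20, 0.01 mM CaCl2.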

DGKζ, sequence (Q13574 other isoform, or with tags, fused parts or gaps): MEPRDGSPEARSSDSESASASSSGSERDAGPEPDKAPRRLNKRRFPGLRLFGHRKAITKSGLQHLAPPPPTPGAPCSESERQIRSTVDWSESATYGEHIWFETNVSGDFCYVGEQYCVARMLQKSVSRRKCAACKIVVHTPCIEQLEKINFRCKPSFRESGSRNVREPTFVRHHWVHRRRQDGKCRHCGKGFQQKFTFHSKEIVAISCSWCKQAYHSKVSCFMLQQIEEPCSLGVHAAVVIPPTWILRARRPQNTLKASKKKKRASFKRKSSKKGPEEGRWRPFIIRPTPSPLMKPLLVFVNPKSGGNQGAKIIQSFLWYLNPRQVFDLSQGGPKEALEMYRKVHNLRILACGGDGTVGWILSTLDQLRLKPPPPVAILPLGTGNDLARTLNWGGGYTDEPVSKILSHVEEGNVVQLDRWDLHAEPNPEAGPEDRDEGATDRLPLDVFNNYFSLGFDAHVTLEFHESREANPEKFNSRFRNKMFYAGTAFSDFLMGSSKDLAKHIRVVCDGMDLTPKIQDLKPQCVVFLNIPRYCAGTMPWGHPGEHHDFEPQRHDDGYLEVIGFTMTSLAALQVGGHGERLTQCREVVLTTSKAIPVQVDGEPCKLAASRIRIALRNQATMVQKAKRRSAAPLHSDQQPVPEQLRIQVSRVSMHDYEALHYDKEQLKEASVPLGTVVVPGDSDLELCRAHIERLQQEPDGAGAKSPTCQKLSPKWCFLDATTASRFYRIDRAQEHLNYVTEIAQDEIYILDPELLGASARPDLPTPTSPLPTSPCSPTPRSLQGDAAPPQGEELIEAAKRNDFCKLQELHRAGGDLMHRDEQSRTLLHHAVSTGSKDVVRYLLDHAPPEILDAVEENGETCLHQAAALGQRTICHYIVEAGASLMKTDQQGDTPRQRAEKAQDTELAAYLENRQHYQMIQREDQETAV

SMILES	IC50 (DGKζ)	IC50 (DGKα)
CC[C@H]1CN(C(C)c2ccc3ncc(Cl)n3n2)[C@H](CC)CN1c1nc(=O)n(C)c2cn(CC#N)nc12 (single isomer, unassigned) [Compound A174b]	8.9 nM	53 nM
CC(c1cc2c(cc1F)OCC(C)(C)O2)N1C[C@H](C)N(c2cc(=O)n(C)c3cn(CC#N)nc23)C[C@H]1C (single isomer, unassigned) [Compound A179a]	1410 nM	15900 nM
CC(c1cc2c(cc1F)OCC(C)(C)O2)N1C[C@H](C)N(c2cc(=O)n(C)c3cn(CC#N)nc23)C[C@H]1C (single isomer, unassigned) [Compound A179b]	323 nM	3190 nM
CC[C@H]1CN(C(C)c2ccc3cnncc3c2)[C@H](CC)CN1c1cc(=O)n(C)c2cn(CC#N)nc12 (single isomer, unassigned) [Compound A186a]	841 nM	53 nM
CC[C@H]1CN(C(C)c2ccc3cnncc3c2)[C@H](CC)CN1c1cc(=O)n(C)c2cn(CC#N)nc12 (single isomer, unassigned) [Compound A186b]	> 10000 nM	1220 nM
CC[C@H]1CN(C(C)c2ccc(N)nc2)[C@H](CC)CN1c1cc(=O)n(C)c2cn(CC#N)nc12 (single isomer, unassigned) [Compound A187a]	> 10000 nM	1990 nM
CC[C@H]1CN(C(C)c2ccc(CN3CCC(OC)CC3)cc2)[C@H](CC)CN1c1cc(=O)n(C)c2cn(CC#N)nc12 (single isomer, unassigned) [Compound A189a]	2190 nM	1080 nM
CC[C@H]1CN(C(C)c2ccc(CN3CCC(OC)CC3)cc2)[C@H](CC)CN1c1cc(=O)n(C)c2cn(CC#N)nc12 (single isomer, unassigned) [Compound A189b]	8540 nM	11800 nM
CC[C@H]1CN(C(C)c2ccc(C(=O)NC)cc2)[C@H](CC)CN1c1cc(=O)n(C)c2cn(CC#N)nc12 (single isomer, unassigned) [Compound A193a]	2870 nM	515 nM
CC[C@H]1CN(C(C)c2ccc(C(=O)NC)cc2)[C@H](CC)CN1c1cc(=O)n(C)c2cn(CC#N)nc12 (single isomer, unassigned) [Compound A193b]	> 10000 nM	6510 nM
CC[C@H]1CN(C(C)c2ccc(C(=O)N3CCC(OC)CC3)cc2)[C@H](CC)CN1c1cc(=O)n(C)c2cn(CC#N)nc12 (single isomer, unassigned) [Compound A194a]	1450 nM	291 nM
CC[C@H]1CN(C(C)c2ccc(C(=O)N3CCC(OC)CC3)cc2)[C@H](CC)CN1c1cc(=O)n(C)c2cn(CC#N)nc12 (single isomer, unassigned) [Compound A194b]	6050 nM	2530 nM
CC[C@H]1CN(C(C)c2ccc(C(=O)N(C)CCOC)cc2)[C@H](CC)CN1c1cc(=O)n(C)c2cn(CC#N)nc12 (single isomer, unassigned) [Compound A195a]	1410 nM	774 nM
CC[C@H]1CN(C(C)c2ccc(C(=O)N(C)CCOC)cc2)[C@H](CC)CN1c1cc(=O)n(C)c2cn(CC#N)nc12 (single isomer, unassigned) [Compound A195b]	> 10000 nM	4210 nM
CC[C@H]1CN(C(C)c2ccc(CN3CCC(OC)C3)cc2)[C@H](CC)CN1c1cc(=O)n(C)c2cn(CC#N)nc12 (single isomer, unassigned) [Compound A203a]	2690 nM	1110 nM
CC[C@H]1CN(C(C)c2ccc(CN3CCC(OC)C3)cc2)[C@H](CC)CN1c1cc(=O)n(C)c2cn(CC#N)nc12 (single isomer, unassigned) [Compound A203b]	7610 nM	11600 nM

SMILES	IC50 (DGKζ)	IC50 (DGKα)
CC[C@H]1CN(C(C)c2ccc3c(C)cnn3c2)[C@H](CC)CN1c1cc(=O)n(C)c2cn(CC#N)nc12 (single isomer, unassigned) [Compound A204a]	31 nM	467 nM
CC[C@H]1CN(C(C)c2ccc3c(C)cnn3c2)[C@H](CC)CN1c1cc(=O)n(C)c2cn(CC#N)nc12 (single isomer, unassigned) [Compound A204b]	971 nM	7300 nM
CC#CCn1cc2c(n1)c(N1C[C@@H](CC)N(C(C)c3cnc4ccccc4n3)C[C@@H]1CC)cc(=O)n2C (single isomer, unassigned) [Compound A206a]	8300 nM	480 nM
CC#CCn1cc2c(n1)c(N1C[C@@H](CC)N(C(C)c3cnc4ccccc4n3)C[C@@H]1CC)cc(=O)n2C (single isomer, unassigned) [Compound A206b]	103 nM	25 nM
CC[C@H]1CN(C(C)c2cc(F)c(CN3CCS(=O)(=O)CC3)c(F)c2)[C@H](CC)CN1c1cc(=O)n(C)c2cn(CC#N)nc12 (stereo partly drawn) [Compound A5, 2-(7-((2S,5R)-4-(1-(4-((1,1-dioxidothiomorpholino)methyl)-3,5-difluorophenyl)ethyl)-2,5-diethylpiperazin-1-yl)-4-methyl-5-oxo-4,5-dihydro-2H-pyrazolo[4,3-b]pyridin-2-yl)acetonitrile]	73 nM	497 nM
CC[C@H]1CN(C(C)c2ccc(C)cc2C)[C@H](CC)CN1c1cc(=O)n(C)c2cn(CC#N)nc12 (stereo partly drawn) [Compound A6, 2-(7-((2S,5R)-4-(1-(2,4-dimethylphenyl)ethyl)-2,5-diethylpiperazin-1-yl)-4-methyl-5-oxo-4,5-dihydro-2H-pyrazolo[4,3-b]pyridin-2-yl)acetonitrile]	219 nM	8530 nM
CCc1ccc(C(C)N2C[C@H](CC)N(c3cc(=O)n(C)c4cn(CC#N)nc34)C[C@H]2CC)cc1 (stereo partly drawn) [Compound A7, 2-(7-((2S,5R)-2,5-diethyl-4-(1-(4-ethylphenyl)ethyl)piperazin-1-yl)-4-methyl-5-oxo-4,5-dihydro-2H-pyrazolo[4,3-b]pyridin-2-yl)acetonitrile]	152 nM	129 nM
CC[C@H]1CN(C(C)c2ccc(C(F)(F)F)c(C)c2)[C@H](CC)CN1c1cc(=O)n(C)c2cn(CC#N)nc12 (stereo partly drawn) [Compound A8, 2-(7-((2S,5R)-2,5-diethyl-4-(1-(3-methyl-4-(trifluoromethyl)phenyl)ethyl)piperazin-1-yl)-4-methyl-5-oxo-4,5-dihydro-2H-pyrazolo[4,3-b]pyridin-2-yl)acetonitrile]	229 nM	1000 nM
CC[C@H]1CN(C(C)c2ccc(OC)c(C)c2)[C@H](CC)CN1c1cc(=O)n(C)c2cn(CC#N)nc12 (stereo partly drawn) [Compound A9, 2-(7-((2S,5R)-2,5-diethyl-4-(1-(4-methoxy-3-methylphenyl)ethyl)piperazin-1-yl)-4-methyl-5-oxo-4,5-dihydro-2H-pyrazolo[4,3-b]pyridin-2-yl)acetonitrile]	339 nM	2110 nM
CC[C@H]1CN(C(C)c2ccc(C(C)(F)F)cc2)[C@H](CC)CN1c1cc(=O)n(C)c2cn(CC#N)nc12 (stereo partly drawn) [Compound A10, 2-(7-((2S,5R)-4-(1-(4-(1,1-difluoroethyl)phenyl)ethyl)-2,5-diethylpiperazin-1-yl)-4-methyl-5-oxo-4,5-dihydro-2H-pyrazolo[4,3-b]pyridin-2-yl)acetonitrile]	104 nM	162 nM
CC[C@H]1CN(C(C)c2ccc(OCCOC)cc2)[C@H](CC)CN1c1cc(=O)n(C)c2cn(CC#N)nc12 (stereo partly drawn) [Compound A11, 2-(7-((2S,5R)-2,5-diethyl-4-(1-(4-(2-methoxyethoxy)phenyl)ethyl)piperazin-1-yl)-4-methyl-5-obo-4,5-dihydro-2H-pyrazolo[4,3-b]pyridin-2-yl)acetonitrile]	500 nM	79 nM
CC[C@H]1CN(C(C)c2ccc(OC)cc2F)[C@H](CC)CN1c1cc(=O)n(C)c2cn(CC#N)nc12 (stereo partly drawn) [Compound A12, 2-(7-((2S,5R)-2,5-diethyl-4-(1-(2-fluoro-4-methoxyphenyl)ethyl)piperazin-1-yl)-4-methyl-5-oxo-4,5-dihydro-2H-pyrazolo[4,3-b]pyridin-2-yl)acetonitrile]	92 nM	440 nM
CC[C@H]1CN(C(C)c2ccc(OC3CCOC3)cc2F)[C@H](CC)CN1c1cc(=O)n(C)c2cn(CC#N)nc12 (stereo partly drawn) [Compound A13, 2-(7-((2S,5R)-2,5-diethyl-4-(1-(2-fluoro-4-((tetrahydrofuran-3-yl)oxy)phenyl)ethyl)piperazin-1-yl)-4-methyl-5-oxo-4,5-dihydro-2H-pyrazolo[4,3-b]pyridin-2-yl)acetonitrile]	323 nM	838 nM
CC[C@H]1CN(C(C)c2ccc(OC)cc2C)[C@H](CC)CN1c1cc(=O)n(C)c2cn(CC#N)nc12 (stereo partly drawn) [Compound A14, 2-(7-((2S,5R)-2,5-diethyl-4-(1-(4-methoxy-2-methylphenyl)ethyl)piperazin-1-yl)-4-methyl-5-oxo-4,5-dihydro-2H-pyrazolo[4,3-b]pyridin-2-yl)acetonitrile]	63 nM	8410 nM
CC[C@H]1CN(C(C)c2ccc(COC3CCOCC3)cc2)[C@H](CC)CN1c1cc(=O)n(C)c2cn(CC#N)nc12 (stereo partly drawn) [Compound A15, 2-(7-((2S,5R)-2,5-diethyl-4-(1-(4-(((tetrahydro-2H-pyran-4-yl)oxy)methyl)phenyl)ethyl)piperazin-1-yl)-4-methyl-5-oxo-4,5-dihydro-2H-pyrazolo[4,3-b]pyridin-2-yl)acetonitrile]	219 nM	193 nM
CC[C@H]1CN(C(C)c2ccc(COC3COC3)cc2)[C@H](CC)CN1c1cc(=O)n(C)c2cn(CC#N)nc12 (stereo partly drawn) [Compound A16, 2-(7-((2S,5R)-2,5-diethyl-4-(1-(4-((oxetan-3-yloxy)methyl)phenyl)ethyl)piperazin-1-yl)-4-methyl-5-oxo-4,5-dihydro-2H-pyrazolo[4,3-b]pyridin-2-yl)acetonitrile]	170 nM	204 nM
